Measurements taken from patent US20230039816A1, “METHOD FOR INDUCING HEPATOCYTE PLASTICITY” (Public University Corporation Yokohama City University, priority 2019, published 2023).

Columns and labels:
D22-pHC = test: Hepatocyte differentiation from pHC; type: cell-based, human; conditions: HDM with 3 μM RA, 15 days
Procedure: The hepatocyte differentiation of pHCs was initiated at about 90% confluence. For 8 days, the medium was changed to HDM containing 3 μM RA and for another 7 days, the medium was changed to RA-free HDM. The medium was changed every 2 days. The total hepatocyte differentiation period was 15 days.

[1] = test system: old N-Heps (D52-, D62-, D72-, D82-Hep); test: Plasticity induction of old N-Heps in RM with epigenetic regulators; type: cell-based, human; conditions: RM with 0.25 mM NaB, 0.5 mM VPA, 10 μM Trany, 0.5 μM RG108 or 0.5 μM BIX
Procedure: (§1) The medium was changed on day 1, 3, and 5. To block the PI3K and MAPK signaling pathways, 10 μM LY29002 and a given dose of PD0325902 (0.01 μM˜1 μM) were each added to RM. […] To regulate epigenetic modification, 0.25 mM NaB, 0.5 mM VPA, 10 μM Trany, 0.5 μM RG108 and 0.5 μM BIX were added in RM. The number of cells was analyzed using an Incell analyzer 2000 (GE Healthcare) combined with Hoechst 33342 staining (Invitrogen).

[2] = test system: elderly model (mice fed CDE diet); test: Induction of hepatic progenitor cells in elderly mice on CDE diet; type: in vivo
Source text: Finally, we investigated whether HDACi could improve the induction of hepatic progenitor cells in elderly models. To induce hepatic progenitor cells in mice, we fed young and elderly mice with a choline-deficient, ethionine-supplemented (CDE) diet for 21 days.

PHHs = test: Plasticity induction of primary human hepatocytes; type: cell-based; conditions: PHHs in RM+NaB vs RM
Procedure: The cryopreserved PHHs were thawed according to the manufacturer's instructions. For the positive control experiments, PHHs were cultured on collagen I-coated culture dishes at a density of 1×10^5 cells/cm^2 using Williams E medium containing 5% FBS, 1 μM dexamethasone, 100 IU/mL penicillin (Thermo Fisher Scientific), 100 μg/mL streptomycin (Thermo Fisher Scientific), 4 μg/mL Human Recombinant Insulin (Sigma), 2 mM GlutaMAX (Thermo Fisher Scientific), and 15 mM HEPES (Sigma). After 24 h, the supernatant from PHHs was collected for ALB analysis. […] At day 0 of culture, 5% FBS was used to improve cell adherence. After 24 h, the medium was exchanged with a fresh medium and subsequently changed every 2 days.

EZH2 = EZH2 transcription by Q-PCR in reprogrammed hepatocytes; type: cell-based, human; conditions: RM treated D22-Hep
Procedure: The medium was changed on day 1, 3, and 5. To block the PI3K and MAPK signaling pathways, 10 μM LY29002 and a given dose of PD0325902 (0.01 μM 1 μM) were each added to RM. […] To regulate epigenetic modification, 0.25 mM NaB, 0.5 mM VPA, 10 μM Trany, 0.5 μM RG108 and 0.5 μM BIX were added in RM. […] Total RNA was isolated using a PureLinkTM RNA Mini Kit.

D22-Hep = test: Induction of proliferation of D22-Hep in reprogramming medium (RM); type: cell-based, human; conditions: 6 days in BM+SMs/RM; PD0325901 0.01-1 μM, LY294002 10 μM, DZNep 0.1 μM, FGF2 added to BM+SMs
Procedure: as §1

Row | Molecule | proliferation of pHCs induced from D52-Heps [1] | induced cellular proliferation of D22-Hep (D22-Hep) | also measured
1 | CC1=C(/C=C/C(C)=C/C=C/C(C)=C/C(=O)O)C(C)(C)CCC1 [retinoic acid] | – | – | ALB production and hepatocyte morphology (D22-pHC): significant improvement in ALB production and typical hepatocyte morphology
2 | O=C(O)C(Cc1c[nH]c2ccccc12)N1C(=O)c2ccccc2C1=O (stereo not shown) [RG108] | such promotion was not detectable | – | –
3 | CCCC(=O)[O-].[Na+] [NaB, sodium butyrate] | markedly promoted the proliferation of pHCs | – | survival rate ([2]; CDE diet): improved; induced Ki67 positive and Epcam positive population ([2]; CDE diet 21 days, liver sections): significantly increased; plasticity induction efficiency (PHHs): significantly increased the plasticity induction efficiency
4 | O=C(NOC[C@H](O)CO)c1ccc(F)c(F)c1Nc1ccc(I)cc1F [PD0325901] | – | inhibited the FGF2-mediated cellular proliferation in a dose-dependent manner | EZH2 transcription (EZH2): suppressed
5 | CCCC(CCC)C(=O)O [VPA, valproic acid] | markedly promoted the proliferation of pHCs | – | –
6 | N[C@@H]1C[C@H]1c1ccccc1 (racemic) [tranylcypromine] | such promotion was not detectable | – | –
7 | COc1cc2nc(N3CCCN(C)CC3)nc(NC3CCN(Cc4ccccc4)CC3)c2cc1OC [BIX01294] | such promotion was not detectable | – | –
8 | Cl.Nc1nccc2c1ncn2[C@@H]1C=C(CO)[C@@H](O)[C@H]1O [DZNep, 3-deazaneplanocin A hydrochloride] | – | significant attenuation of the induced cellular proliferation | –
9 | FGF2: Recombinant Human FGF2, member of the FGF family | – | the induced proliferative ability greatly improved | –
